From publication PMC3334839 (The Journal of Neuroscience, 2012)
Numbering of substitutions follows the chain as printed.

How the values were obtained:
human α1 GlyR = target: T1, human α1 GlyR (Homo sapiens, UniProt P23415); test: cell-based; type: cell-based; details: for average percent potentiation of IGly: concentration-response (Fig. 1E)
T1 sequence (P23415 29-457): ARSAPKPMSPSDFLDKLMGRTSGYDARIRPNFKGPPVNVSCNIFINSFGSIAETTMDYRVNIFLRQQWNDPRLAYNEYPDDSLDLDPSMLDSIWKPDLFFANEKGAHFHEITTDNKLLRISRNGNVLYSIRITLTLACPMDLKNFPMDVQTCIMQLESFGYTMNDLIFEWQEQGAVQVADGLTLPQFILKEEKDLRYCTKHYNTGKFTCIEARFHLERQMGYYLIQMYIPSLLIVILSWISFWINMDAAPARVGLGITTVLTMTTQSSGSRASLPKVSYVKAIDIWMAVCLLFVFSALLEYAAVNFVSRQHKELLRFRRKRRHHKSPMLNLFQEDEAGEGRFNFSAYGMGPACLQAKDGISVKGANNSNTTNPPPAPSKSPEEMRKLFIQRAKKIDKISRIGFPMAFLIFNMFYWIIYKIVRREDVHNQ

α1β1 GlyRs = α1β1 GlyRs (Homo sapiens, UniProt P23415); type: cell-based
[1] = target: T2, S296A mutant human α1 GlyR (Homo sapiens, UniProt P23415, S324A); test: cell-based; type: cell-based; details: S296A α1
T2 sequence (P23415 29-457 S324A): T1 sequence (P23415 29-457) with S296A

A303S mutant rat α2 GlyR = target: T3, A303S mutant rat α2 GlyR (Rattus norvegicus, UniProt P22771, A330S); test: Whole-cell patch-clamp of IGly in HEK-293 cells expressing A303S mutant α2 GlyRs; type: cell-based; details: 10 μM AEA, 5 min sustained, EC2 Gly (20 μM)
T3 sequence (P22771 28-452 A330S): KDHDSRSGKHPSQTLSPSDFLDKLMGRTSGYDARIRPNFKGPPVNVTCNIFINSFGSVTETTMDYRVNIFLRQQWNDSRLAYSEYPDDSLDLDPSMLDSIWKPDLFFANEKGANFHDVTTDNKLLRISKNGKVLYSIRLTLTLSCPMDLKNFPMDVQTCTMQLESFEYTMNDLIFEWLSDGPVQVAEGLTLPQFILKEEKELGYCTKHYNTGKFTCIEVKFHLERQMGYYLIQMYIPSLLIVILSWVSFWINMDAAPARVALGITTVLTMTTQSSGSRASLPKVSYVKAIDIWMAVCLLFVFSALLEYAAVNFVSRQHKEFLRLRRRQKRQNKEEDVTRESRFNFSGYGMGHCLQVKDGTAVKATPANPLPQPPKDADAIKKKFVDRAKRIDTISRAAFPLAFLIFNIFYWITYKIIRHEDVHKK

[2] = target: T4, G254A mutant human α1 GlyR (Homo sapiens, UniProt P23415, G282A); test: Whole-cell patch-clamp of IGly in HEK-293 cells expressing G254A mutant α1 GlyRs; type: cell-based; details: AEA 5 min sustained incubation
T4 sequence (P23415 29-457 G282A): T1 sequence (P23415 29-457) with G254A

CB1 receptors = details: read-out: binding affinity (Ki) for CB1 receptors; ref Pertwee, 2000; cited from earlier work
CB2 receptors = details: read-out: binding affinity (Ki) for CB2 receptors; ref Pertwee, 2000; cited from earlier work

α1β1 GlyRs, sequence (P48167 23-497 partner, one chain of several): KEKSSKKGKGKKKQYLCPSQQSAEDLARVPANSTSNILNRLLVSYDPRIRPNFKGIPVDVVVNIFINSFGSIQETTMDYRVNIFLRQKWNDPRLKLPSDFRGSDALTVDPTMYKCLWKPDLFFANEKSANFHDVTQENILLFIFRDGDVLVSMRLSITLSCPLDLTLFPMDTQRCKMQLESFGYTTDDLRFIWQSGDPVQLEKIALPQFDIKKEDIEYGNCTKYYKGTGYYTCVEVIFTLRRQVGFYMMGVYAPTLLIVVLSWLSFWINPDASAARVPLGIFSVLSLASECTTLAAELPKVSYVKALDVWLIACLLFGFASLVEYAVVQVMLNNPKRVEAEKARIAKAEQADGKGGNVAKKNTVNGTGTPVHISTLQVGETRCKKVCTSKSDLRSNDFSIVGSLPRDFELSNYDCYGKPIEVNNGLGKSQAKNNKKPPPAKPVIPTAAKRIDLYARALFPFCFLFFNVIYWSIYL

## CCCCC/C=C\C/C=C\C/C=C\C/C=C\CCCC(=O)NCCO [AEA, anandamide]
Human α1 GlyR
  EC50: 4.2 ± 1.95 µM
Human α1 GlyR; 1 μM AEA sustained application, α1 homomeric
  time to maximal potentiation of IGly: 5 min
Human α1 GlyR; 1 μM AEA, 5 min sustained application, EC2 Gly, α1 (Fig. 1C)
  average percentage potentiation of IGly: 97 ± 16%
Human α1 GlyR; 1 μM AEA, after 1 min of AEA exposure, HEK-293 cells
  percentage potentiation of IGly, initial value: 3 ± 1%
Human α1 GlyR; 1 μM AEA, EC2 Gly
  average percent potentiation of IGly: 91 ± 9%
Human α1 GlyR; 3 μM AEA, EC2 Gly
  average percent potentiation of IGly: 311 ± 86%
Human α1 GlyR; 10 μM AEA simultaneously applied only with Gly, wild-type α1
  AEA-induced potentiation of IGly, simultaneous application: 108 ± 15%
Human α1 GlyR; 10 μM AEA, Gly 30 μM
  average percentage potentiation of IGly: 102 ± 49%
Human α1 GlyR; 10 μM AEA, Gly 100 μM
  average percentage potentiation of IGly: 24 ± 6%
Human α1 GlyR; 10 μM AEA, Gly 10 μM
  average percent potentiation of IGly: 712 ± 96%
Human α1 GlyR; 30 μM AEA, EC2 Gly
  average percent potentiation of IGly: 824 ± 278%
Human α1 GlyR; AEA applied continuously for 5 min with intermittent Gly
  maximal potentiation of α1 GlyRs: 700–800%
Human α1 GlyR; even at high concentrations (> 30 μM), no Gly, cell type not specified
  direct activation of current by AEA alone: did not trigger detectable current
α1β1 GlyRs; 1 μM AEA sustained application, α1β1 heteromeric
  time to maximal potentiation of IGly: 5 min
α1β1 GlyRs; 1 μM AEA, 5 min sustained application, EC2 Gly, α1β1 (Fig. 1C)
  average percentage potentiation of IGly: 85 ± 12%
[1]; 10 μM AEA simultaneously applied only with Gly
  AEA-induced potentiation of IGly, simultaneous application: 99 ± 20%
[1]; 10 μM AEA, 5 min sustained, EC2 Gly (10 μM)
  AEA-induced potentiation of IGly: 131 ± 41%
A303S mutant rat α2 GlyR
  AEA-induced potentiation of IGly: 580 ± 110%
[2]
  AEA-induced potentiation of IGly: 597 ± 77%
CB1 receptors
  Ki: 0.061 to 0.543 µM
CB2 receptors
  Ki: 0.279 to 1.94 µM
